Patent publication US6696479B2, “Crystalline forms” (Ciba Specialty Chemicals Corporation, priority 2001, dated 2004)
Each block holds one molecule with its values, some of them ahead of it.

Experiments:
[1] = Estimated water content of crystalline forms obtained by equilibration under defined relative humidity; assay type: physicochemical
Description: Forms C, D, E and F can be prepared according to a process, wherein Fluvastatin sodium is exposed to an atmosphere having a defined relative humidity. […] As a rule the estimated water content can range from 3-6%. […] As a rule the estimated water content can range from 6-12%. […] As a rule the estimated water content can range from 15-22%. […] As a rule the estimated water content can range from 24-32%.

[2] = Water content of highly crystalline Form A (Karl Fisher titration); assay type: physicochemical
Procedure: Highly crystalline Fluvastatin sodium Form A can generally be prepared by equilibration of an aqueous suspension or solution of Fluvastatin sodium for several hours at temperatures from about 0 to 10° C. and subsequent drying by lyophilization. The process can be accelerated by additional seeding with crystals of Form A during the equilibration period. A characteristic X-ray powder diffraction pattern for highly crystalline Form A is depicted in FIG. 1. The crystallinity of this material is estimated by the powder diffraction spectrum to be more than 90%. The estimated water content is below 2%.
A 30 ml aqueous solution of 30° C. containing ca. 3 grams of Fluvastatin sodium was cooled to about 2° C. and was allowed to stand at this temperature for 6 hours. Subsequently, the off-white coloured suspension was frozen using a dry-ice bath and dried by lyophilization for 24 hours. […] From its X-ray powder diffraction pattern it was estimated that the crystallinity is more than 90%, see FIG. 1.

[3] = compared with Form A or the amorphous form; from WO-A-97/49681 / U.S. Pat. No. 6,124,340; cited from earlier work

estimated water content ([1]; equilibration under relative humidity from about 80 to 90% (for example several days)): 24-32%
Compound: CC(C)n1c(/C=C/[C@H](O)C[C@H](O)CC(=O)[O-])c(-c2ccc(F)cc2)c2ccccc21.[Na+] (racemic) [Form F, (±)-7-(3-(4-fluorophenyl)-1-(1-methylethyl)-1H-indol-2-yl)-3,5-dihydroxy-6-heptenoic acid monosodium salt]

estimated water content ([1]; equilibration under relative humidity from about 30 to 50% (for example 6 to 24 hours)): 6-12%
Compound: CC(C)n1c(/C=C/[C@H](O)C[C@H](O)CC(=O)[O-])c(-c2ccc(F)cc2)c2ccccc21.[Na+] (racemic) [Form D, (±)-7-(3-(4-fluorophenyl)-1-(1-methylethyl)-1H-indol-2-yl)-3,5-dihydroxy-6-heptenoic acid monosodium salt]

estimated water content ([1]; equilibration under relative humidity from about 55 to 75% (for example several days)): 15-22%
Compound: CC(C)n1c(/C=C/[C@H](O)C[C@H](O)CC(=O)[O-])c(-c2ccc(F)cc2)c2ccccc21.[Na+] (racemic) [Form E, (±)-7-(3-(4-fluorophenyl)-1-(1-methylethyl)-1H-indol-2-yl)-3,5-dihydroxy-6-heptenoic acid monosodium salt]

estimated water content ([1]; equilibration under relative humidity from about 15 to 25% (for example 6 to 24 hours)): 3-6%
Compound: CC(C)n1c(/C=C/[C@H](O)C[C@H](O)CC(=O)[O-])c(-c2ccc(F)cc2)c2ccccc21.[Na+] (racemic) [Form C, (±)-7-(3-(4-fluorophenyl)-1-(1-methylethyl)-1H-indol-2-yl)-3,5-dihydroxy-6-heptenoic acid monosodium salt]

Continued, molecule first:

Compound: CC(C)n1c(/C=C/[C@H](O)C[C@H](O)CC(=O)[O-])c(-c2ccc(F)cc2)c2ccccc21.[Na+] (racemic) [Form A, (±)-7-(3-(4-fluorophenyl)-1-(1-methylethyl)-1H-indol-2-yl)-3,5-dihydroxy-6-heptenoic acid monosodium salt]
water content ([2]; Karl Fisher titration, Example 1, lyophilized 24 hours): below 2%
estimated water content ([2]; aqueous suspension or solution equilibrated at about 0 to 10° C., then lyophilization): below 2%

Compound: CC(C)n1c(/C=C/[C@H](O)C[C@H](O)CC(=O)[O-])c(-c2ccc(F)cc2)c2ccccc21.[Na+] (racemic) [Form B, (±)-7-(3-(4-fluorophenyl)-1-(1-methylethyl)-1H-indol-2-yl)-3,5-dihydroxy-6-heptenoic acid monosodium salt]
hygroscopicity [3]: less hygroscopic than Form A or the amorphous form
